Results taken from article PMC12040169 (PLOS Biology, 2025).

Assay: in vitro
Details: human, hela cells, % viability

SMILES	viability at 28.5 h, 10 µM [%]
CCOC(=O)c1cnc(Nc2nc3ccccc3o2)nc1CSc1ncccn1 [CBK268885]	103
CSc1ncc(Cl)c(C(=O)Nc2sc3c(c2C(=O)NC2CCS(=O)(=O)C2)CCC(C)C3)n1 (stereo not shown) [CBK268886]	95.2
N#Cc1ccccc1COC(=O)c1cc(-c2ccc(/C=C/c3[nH]c(=O)[nH]c(=O)c3[N+](=O)[O-])o2)ccc1Cl [CBK268888]	111
CCOC(=O)C1=C(CSc2nc3ccccc3[nH]2)NC(=O)NC1c1cccc([N+](=O)[O-])c1 (stereo not shown) [CBK268889]	96.2
N=C(Nc1nc(CSc2nnc(N)s2)cc(=O)[nH]1)Nc1ccc(Cl)cc1Cl [CBK268890]	85.5
Cc1ccc(-n2c(SCC(=O)NCc3ccccc3)nnc2-c2ccccc2O)c(C)c1 [CBK268892]	91.5
COc1ccc(Cl)cc1NC(=O)C1CC(=O)N=C(N2CCOCC2)N1 (stereo not shown) [CBK268893]	100
O=C1c2cccc3cccc(c23)C(=O)N1CCCSc1nnc[nH]1 [CBK268894]	66.4
COc1ccc(N2C(=O)CC(n3c(CCCCO)nc4ccccc43)C2=O)cc1 (stereo not shown) [CBK268895]	107
Cc1cc(C)c(C)c(S(=O)(=O)NCCCC(=O)O)c1C [CBK268898]	83.8
COc1ccc(Cl)c(NC(=O)NCCN2CCN(c3ccccc3)CC2)c1 [CBK268899]	90.7
COc1ccccc1NS(=O)(=O)c1ccc2c(c1)C1C=CCC1C(c1ccc(C(=O)O)cc1)N2 (stereo not shown) [CBK268903]	101
CSc1nsc(SCC(=O)c2ccc3c(c2)OCCO3)n1 [CBK268904]	108
Cc1ccc(-n2c(SCC(=O)Nc3ccccc3F)nnc2-c2ccccc2O)c(C)c1 [CBK268905]	88.6
CSc1nc(-n2nc(C)cc2C)c2c3c(sc2n1)COC(C)(C)C3 [CBK268906]	89.7
Cc1cccnc1NC(=S)NCc1ccco1 [CBK268907]	103
O=C(NC(=S)Nc1ccc2[nH]c(=O)[nH]c2c1)c1ccc(OCc2ccccc2)cc1 [CBK268908]	83.8
COc1ccc(C(=O)c2ccc(N3CCN(C4CC(=O)NC4=O)CC3)cc2)cc1F (stereo not shown) [CBK268909]	94.2
Cc1ccc(Cn2nc(C)c(NC(=O)c3nc4ncccn4n3)c2C)cc1 [CBK268912]	90.9
Cc1c(Br)c([N+](=O)[O-])nn1C(C)C(=O)Nc1sc2c(c1C(N)=O)CCCC2 (stereo not shown) [CBK268914]	88.1
O=C(O)c1cn(C2CC2)c2cc(N3CCN(C(=S)Nc4ccc5c(c4)OCCO5)CC3)c(F)cc2c1=O [CBK268916]	90.9
CCOC(=O)c1ccc(NC(=O)c2ccccc2-c2nc(-c3ccccc3Cl)no2)cc1 [CBK268919]	111

SMILES	viability at 28.5 h, 10 µM [%]
CSc1ncc(Cl)c(C(=O)Nc2nnc(C)s2)n1 [CBK268920]	90.1
CCC(C)NC(=O)c1ccc2nccnc2c1 (stereo not shown) [CBK268921]	89.4
NC(=O)CSc1nc(NCc2ccccc2)nc(N2CCOCC2)n1 [CBK268923]	93.3
COc1ccc(N2C(=O)CC(N3CCN(c4ccc(C(=O)c5cccnc5)cc4)CC3)C2=O)cc1 (stereo not shown) [CBK268924]	92.7
O=C(CN1CCCC1)Nc1sc2c(c1C(=O)NCc1ccccc1)CCCC2 [CBK268926]	105
N=c1n(CCCOc2ccccc2Cl)c2ccccc2n1CC(N)=O [CBK268927C]	106
O=C(COc1ccc2oc3ccccc3c2c1)c1ccccc1 [CBK268931]	99.5
NC(=O)c1ccc(NC(=O)CCCc2nc(-c3ccccc3Cl)no2)cc1 [CBK268932]	103
Cn1c(=O)c2c(ncn2CCCn2cnc3c2c(=O)n(C)c(=O)n3C)n(C)c1=O [CBK268933]	106
O=C(c1ccncc1)c1ccc(N2CCN(C3CC(=O)N(Cc4ccccc4)C3=O)CC2)cc1 (stereo not shown) [CBK268934]	106
NS(=O)(=O)c1ccc(NCc2ccccc2OCc2ccccc2F)cc1 [CBK268935]	91.8
Cc1ccc(S(=O)(=O)Nc2ccc(-c3cn4cccnc4n3)cc2)cc1[N+](=O)[O-] [CBK268936]	60.5
Cc1cc(C)nc(SCC(=O)Nc2cc(C(=O)O)cc([N+](=O)[O-])c2)n1 [CBK268937]	86.8
Cc1ccccc1NC(=O)COc1ccc(S(=O)(=O)N2CCCC2)cc1Cl [CBK268938]	95.2
Cn1c(=O)c2c(nc(NCCCO)n2C/C=C/c2ccccc2)n(C)c1=O [CBK268940]	87.2
CSc1nsc(SCC(=O)OC2CC3CCC2(C)C3(C)C)n1 (stereo not shown) [CBK268941]	92.5
Cc1sc(NC(=S)NC(=O)C(C)(C)C)c(C(N)=O)c1C [CBK268943]	97.1
Cc1ccc(CCC(=O)C(C#N)c2nc3ccccc3s2)o1 (stereo not shown) [CBK268944]	112
O=C(NC(=S)Nc1ccc(N2CCN(Cc3ccccc3F)CC2)cc1)c1ccco1 [CBK268946]	92.6
CSc1nsc(SCC(=O)Nc2ccc(OC(C)=O)cc2)n1 [CBK268948]	88.1
CCc1c(C)nc2n(c1=O)C(CS(=O)(=O)c1ccccc1)CS2 (stereo not shown) [CBK268949]	94.7
